Reference: patent US11691951B2 (Curtana Pharmaceuticals, Inc., priority 2015, dated 2023)

test system: GBM8 cells (human glioblastoma neurosphere cell culture); experiment: GBM8 viability assay (Cell Titer Glo luminescence, 3 days); assay type: cell-based; conditions: 72 h, 3 days incubation
Method in brief: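 Patient-derived neurosphere cells (4000/well) in NeuroCult medium with rh EGF, rh bFGF and heparin, ultra-low attachment, dosed after overnight settling; 3 days at 37 °C. CellTiter-Glo luminescence versus DMSO controls gave % growth inhibition; IC50 from 4-parameter fit of serial dilutions.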

IC50	SMILES
< 1000 nM	Cc1cc(NCCCCN)nc(NC(=O)Nc2ccc(C)c(C)c2)n1 [Compound 254]
< 1000 nM	Cc1cc(NCCN(C)C)nc(NC(=O)Nc2ccc(OC(F)(F)F)cc2)n1 [Compound 88]
< 1000 nM	CC(=O)NCCNc1cc(C)nc(NC(=O)Nc2ccc(C(C)(C)C)cc2)n1 [Compound 309, N-(2-{2-[3-(4-tert-butyl-phenyl)-ureido]-6-methyl-pyrimidin-4-ylamino}-ethyl)-ace mid]
< 1000 nM	Cc1cc(NCC2CCCNC2)nc(NC(=O)Nc2ccc(Cl)c(Cl)c2)n1 (stereo not drawn) [Compound 27]
< 1000 nM	CCNc1cc(C)nc(NC(=O)Nc2ccc(OC)cc2)n1 [Compound 139]
1000 to 10000 nM	Cc1ccc(NC(=O)Nc2nc(C)cc(NCCN(C)C)n2)cc1 [Compound 242]
< 1000 nM	CNCCCCNc1cc(C)nc(NC(=O)Nc2ccc(Cl)c(Cl)c2)n1 [Compound 26, 1-(3,4-dichlorophenyl)-3-(4-methyl-6-((4-(methylamino)butyl)amino)pyrimidin-2-yl)urea]
< 1000 nM	Cc1cc(NCCCN(C)C)nc(NC(=O)Nc2ccc(C)c(C)c2)n1 [Compound 251, 1-(4-((3-(dimethylamino)propyl)amino)-6-methylpyrimidin-2-yl)-3-(3,4-dimethylphenyl)urea]
< 1000 nM	Cc1cc(NCCCCO)nc(NC(=O)Nc2cccc(C(F)(F)F)c2)n1 [Compound 181]
< 1000 nM	Cc1cc(NCC(C)O)nc(NC(=O)Nc2ccc(Cl)c(C(F)(F)F)c2)n1 (stereo not drawn) [Compound 54]
< 1000 nM	Cc1cc(NCC(O)CO)nc(NC(=O)Nc2ccc(OC(F)(F)F)cc2)n1 (stereo not drawn) [Compound 96]
1000 to 10000 nM	Cc1cc(NCCCCN(C)C)nc(NC(=O)Nc2ccc(Cl)c(C(F)(F)F)c2)n1 [Compound 56]
1000 to 10000 nM	Cc1cc(NCCCCO)nc(NC(=O)Nc2ccccc2)n1 [Compound 73]
< 1000 nM	Cc1cc(NCCCN(C)C)nc(NC(=O)Nc2ccc(C(F)(F)F)cc2)n1 [Compound 196, 1-(4-((3-(dimethylamino)propyl)amino)-6-methylpyrimidin-2-yl)-3-(4-(trifluoromethyl)phenyl)urea]
< 1000 nM	CCCNc1cc(C)nc(NC(=O)Nc2ccc(C(F)(F)F)cc2)n1 [Compound 202]
< 1000 nM	Cc1cc(NCCCCN(C)C)nc(NC(=O)Nc2ccc(Cl)c(Cl)c2)n1 [Compound 17]
< 1000 nM	COc1ccc(NC(=O)Nc2nc(C)cc(NCC(O)CO)n2)cc1 (stereo not drawn) [Compound 135]

Second part, the compound before the results:

SMILES	IC50
CNCCNc1cc(C)nc(NC(=O)Nc2ccc(F)c(C(F)(F)F)c2)n1 [Compound 120, 1-(4-fluoro-3-(trifluoromethyl)phenyl)-3-(4-methyl-6-((2-(methylamino)ethyl)amino)pyrimidin-2-yl)urea]	< 1000 nM
Cc1cc(NCCO)nc(NC(=O)Nc2ccc(Cl)c(C(F)(F)F)c2)n1 [Compound 49]	< 1000 nM
CNCCCNc1cc(C)nc(NC(=O)Nc2ccc(OC(F)(F)F)cc2)n1 [Compound 99, 1-[4-Methyl-6-(3-methylamino-propylamino)-pyrimidin-2-yl]-3-(4-trifluoromethoxy-phenyl)-urea]	< 1000 nM
Cc1cccc(NC(=O)Nc2nc(C)cc(NCC3CCCNC3)n2)c1 (stereo not drawn) [Compound 232]	< 1000 nM
Cc1cccc(NC(=O)Nc2nc(C)cc(NCCCCO)n2)c1 [Compound 212]	< 1000 nM
COc1ccc(NC(=O)Nc2nc(C)cc(NCCCCN)n2)cc1 [Compound 137]	< 1000 nM
COc1cccc(NC(=O)Nc2nc(C)cc(NCC3CCCNC3)n2)c1 (stereo not drawn) [Compound 155]	1000 to 10000 nM
Cc1cc(NCCO)nc(NC(=O)Nc2ccccc2)n1 [Compound 71]	1000 to 10000 nM
Cc1cc(NCC(F)(F)CO)nc(NC(=O)Nc2ccc(Cl)c(C(F)(F)F)c2)n1 [Compound 53]	< 1000 nM
Cc1cc(NCCCCO)nc(NC(=O)Nc2ccc(F)c(C(F)(F)F)c2)n1 [Compound 106]	< 1000 nM
COc1cccc(NC(=O)Nc2nc(C)cc(NCCCCO)n2)c1 [Compound 146]	1000 to 10000 nM
Cc1cc(NCCCCO)nc(NC(=O)Nc2ccc(C)c(C)c2)n1 [Compound 255]	< 1000 nM
CC(=O)NCCCNc1cc(C)nc(NC(=O)Nc2ccc(OC(F)(F)F)cc2)n1 [Compound 273, N-(3-((6-methyl-2-(3-(4-(trifluoromethoxy)phenyl)ureido)pyrimidin-4-yl)amino)propyl)acetamide]	< 1000 nM
CC(=O)NCCCNc1cc(C)nc(NC(=O)Nc2ccc3c(c2)OCO3)n1 [Compound 305, N-(3-((2-(3-(benzo[d][1,3]dioxol-5-yl)ureido)-6-methylpyrimidin-4-yl)amino)propyl)acetamide]	< 1000 nM
Cc1cc(NCCCCN)nc(NC(=O)Nc2cccc(C(F)(F)F)c2)n1 [Compound 190]	< 1000 nM
Cc1cc(NCC(C)O)nc(NC(=O)Nc2ccc(OC(F)(F)F)cc2)n1 (stereo not drawn) [Compound 95]	< 1000 nM

SMILES	IC50
Cc1ccc(NC(=O)Nc2nc(C)cc(NCCCN)n2)cc1 [Compound 236]	< 1000 nM
Cc1cccc(NC(=O)Nc2nc(C)cc(NCCCCN)n2)c1 [Compound 216]	< 1000 nM
CNCCCNc1cc(C)nc(NC(=O)Nc2ccc(C)cc2)n1 [Compound 248, 1-(4-methyl-6-((3-(methylamino)propyl)amino)pyrimidin-2-yl)-3-(p-tolyl)urea]	1000 to 10000 nM
Cc1cc(NCCCN)nc(NC(=O)Nc2ccc(C(C)(C)C)cc2)n1 [Compound 303]	< 1000 nM
Cc1cc(NCCCCN)nc(NC(=O)Nc2cccc(OC(F)(F)F)c2)n1 [Compound 173]	< 1000 nM
COc1cccc(NC(=O)Nc2nc(C)cc(NCCCCN)n2)c1 [Compound 142]	1000 to 10000 nM
Cc1cc(NCCO)nc(NC(=O)Nc2cccc(OC(F)(F)F)c2)n1 [Compound 176]	< 1000 nM
Cc1cc(NCCCCO)nc(NC(=O)Nc2cccc(OC(F)(F)F)c2)n1 [Compound 175]	< 1000 nM
CCNc1cc(C)nc(NC(=O)Nc2ccc3c(c2)OCO3)n1 [Compound 285]	< 1000 nM
CC(=O)NCCNc1cc(C)nc(NC(=O)Nc2ccc3c(c2)OCCO3)n1 [Compound 307, N-(2-{2-[3-(2,3-dihydro-benzo[1,4]dioxin-6-yl)-ureido]-6-methyl-pyrimidin-4-ylamino}-ethyl)-acetamide]	< 1000 nM
Cc1cc(NCCN(C)C)nc(NC(=O)Nc2ccc3c(c2)OCO3)n1 [Compound 284]	1000 to 10000 nM
Cc1cc(NCCN)nc(NC(=O)Nc2ccc3c(c2)OCCO3)n1 [Compound 293]	1000 to 10000 nM
Cc1cc(NC2CCNC2)nc(NC(=O)Nc2ccc(Cl)c(C(F)(F)F)c2)n1 (stereo not drawn) [Compound 67]	< 1000 nM
Cc1cc(NCCCN(C)C)nc(NC(=O)Nc2ccc(F)c(C(F)(F)F)c2)n1 [Compound 101, 3-(dimethylamino)-1-(2-{3-[4-fluoro-3-(trifluoromethyl)phenyl]ureido}-6-methyl-4-pyrimidinylamino)propane]	< 1000 nM
CNCCCNc1cc(C)nc(NC(=O)Nc2ccc(F)c(C(F)(F)F)c2)n1 [Compound 121]	< 1000 nM
